Results on ten compounds are retold here after patent US10160724B2, “Tetrahydropyridine derivatives and their use as antibacterial agents” (Dong-A St Co., Ltd., priority 2016, dated 2018).

One may read the MIC as the smallest concentration in the dilution series that meets the test's criterion for growth inhibition.

Holding throughout (assay): In vitro antibiotic activity, agar dilution method (Mueller-Hinton agar, NCCLS)
Common to all, as to type: cell-based
(In agar dilution the substance is mixed into plates at graded concentrations.)

For one experiment, the system named is K. pneumoniae ATCC 29665. The conditions noted are these: Klebsiella pneumoniae, ATCC29665; agar dilution, Mueller-Hinton agar; read-out: MIC for K. pneumoniae ATCC 29665. The procedure: (§1) To measure the antibiotic activity of the compounds prepared by Examples, antibiotic activity test in vitro was performed by agar dilution method using Mueller-Hinton agar according to the NCCLS (National Committee for Clinical Laboratory Standards. 2000. Methods for dilution antimicrobial susceptibility tests for bacteria that grow aerobiocally. Approved standard, NCCLS document M7-M5, 5th ed, vol 20, no 2. National Committee for Clinical Laboratory Standards, Wayne, Pa.). The test strain was Escherichia coli (ATCC 25922), Klebsiella pneumonia (ATCC 29665) and Pseudomonas aeriginosa (PAO1).

For the next experiment, the system named is E. coli ATCC 25922. As to conditions: Escherichia coli, ATCC25922; agar dilution, Mueller-Hinton agar; read-out: MIC for E. coli ATCC 25922. The protocol: as §1
The subject of a further experiment is P. aeruginosa PAO1. The conditions noted are these: Pseudomonas aeruginosa, PAO1; agar dilution, Mueller-Hinton agar; read-out: MIC for P. aeruginosa PAO1. The protocol:
as §1

Converted amounts (≈) assume the structure as drawn.

Regarding `CC(CCN1CC=C(c2ccc(C#CCOCCCO)cc2)CC1)(C(=O)NO)S(C)(=O)=O` (stereo not drawn) [Example 24, N-hydroxy-4-(4-(4-(3-(3-hydroxypropoxy)prop-1-yn-1-yl)phenyl)-3,6-dihydropyridin-1(2H)-yl)-2-methyl-2-(methylsulfonyl)butanamide], the MIC with K. pneumoniae ATCC 29665, with E. coli ATCC 25922 and with P. aeruginosa PAO1 was 1 to 8 µg/mL (≈ 2.15 to 17.2 µM) in each case.
For the compound `CC(CCN1CC=C(c2ccc(C#CCN3CCOCC3)cc2)CC1)(C(=O)NO)S(C)(=O)=O` (stereo not drawn) [Example 25, N-hydroxy-2-methyl-2-(methylsulfonyl)-4-(4-(4-(3-morpholinoprop-1-yn-1-yl)phenyl)-3,6-dihydropyridin-1(2H)-yl)butanamide], the MIC in the experiment on K. pneumoniae ATCC 29665, in the experiment on E. coli ATCC 25922 and in the experiment on P. aeruginosa PAO1 was 1 to 8 µg/mL (≈ 2.1 to 16.8 µM) throughout.
Consider `CC(CCN1CC=C(c2ccc(C#CCOC(N)=O)cc2)CC1)(C(=O)NO)S(C)(=O)=O` (stereo not drawn) [Example 26, 3-(4-(1-(4-(hydroxyamino)-3-methyl-3-(methylsulfonyl)-4-oxobutyl)-1,2,3,6-tetrahydropyridin-4-yl)phenyl)prop-2-yn-1-yl carbamate], for which the MIC in the experiment with K. pneumoniae ATCC 29665 was in the range of 8 to 16 µg/mL (≈ 17.8 to 35.6 µM); with E. coli ATCC 25922 it was 1 to 8 µg/mL (≈ 2.22 to 17.8 µM); with P. aeruginosa PAO1 it was 1 to 8 µg/mL (≈ 2.22 to 17.8 µM).
As for `CC(CCN1CC=C(c2ccc(C#CCCCOC(N)=O)cc2)CC1)(C(=O)NO)S(C)(=O)=O` (stereo not drawn) [Example 27, 5-(4-(1-(4-(hydroxyamino)-3-methyl-3-(methylsulfonyl)-4-oxobutyl)-1,2,3,6-tetrahydropyridin-4-yl)phenyl)pent-4-yn-1-yl carbamate], the results for the MIC with K. pneumoniae ATCC 29665, in the experiment with E. coli ATCC 25922 and in the experiment on P. aeruginosa PAO1 were 1 to 8 µg/mL (≈ 2.09 to 16.8 µM), less than 1 µg/mL and 1 to 8 µg/mL (≈ 2.09 to 16.8 µM), respectively.
In the case of `COCCCC#Cc1ccc(C2=CCN(CCC(C)(C(=O)NO)S(C)(=O)=O)CC2)cc1` (stereo not drawn) [Example 28, N-hydroxy-4-(4-(4-(5-methoxypent-1-yn-1-yl)phenyl)-3,6-dihydropyridin-1(2H)-yl)-2-methyl-2-(methylsulfonyl)butanamide], the MIC was less than 1 µg/mL with K. pneumoniae ATCC 29665, less than 1 µg/mL in the experiment with E. coli ATCC 25922 and 1 to 8 µg/mL (≈ 2.23 to 17.8 µM) in the experiment on P. aeruginosa PAO1.
For the compound `CC(CCN1CC=C(c2ccc(C#CCCCCO)cc2)CC1)(C(=O)NO)S(C)(=O)=O` (stereo not drawn) [Example 29, N-hydroxy-4-(4-(4-(6-hydroxyhex-1-yn-1-yl)phenyl)-3,6-dihydropyridin-1(2H)-yl)-2-methyl-2-(methylsulfonyl)butanamide], the MIC in the experiment on K. pneumoniae ATCC 29665 is 1 to 8 µg/mL (≈ 2.23 to 17.8 µM); with E. coli ATCC 25922, less than 1 µg/mL; in the experiment on P. aeruginosa PAO1, 1 to 8 µg/mL (≈ 2.23 to 17.8 µM).
As for `CC(CCN1CC=C(c2ccc(C#CCCCCN3CCOCC3)cc2)CC1)(C(=O)NO)S(C)(=O)=O` (stereo not drawn) [Example 30, N-hydroxy-2-methyl-2-(methylsulfonyl)-4-(4-(4-(6-morpholinohex-1-yn-1-yl)phenyl)-3,6-dihydropyridin-1(2H)-yl)butanamide], the MIC in the experiment with K. pneumoniae ATCC 29665 was 1 to 8 µg/mL (≈ 1.93 to 15.5 µM); in the experiment on E. coli ATCC 25922, less than 1 µg/mL; in the experiment on P. aeruginosa PAO1, 1 to 8 µg/mL (≈ 1.93 to 15.5 µM).
`CN(C)CC#Cc1ccc(C2=CCN(CCC(C)(C(=O)NO)S(C)(=O)=O)CC2)cc1F` (stereo not drawn) [Example 31, 4-(4-(4-(3-(dimethylamino)prop-1-yn-1-yl)-3-fluorophenyl)-3,6-dihydropyridin-1(2H)-yl)-N-hydroxy-2-methyl-2-(methylsulfonyl)butanamide]: the results for the MIC in the experiment with K. pneumoniae ATCC 29665, with E. coli ATCC 25922 and in the experiment on P. aeruginosa PAO1 were 1 to 8 µg/mL (≈ 2.21 to 17.7 µM), less than 1 µg/mL and 1 to 8 µg/mL (≈ 2.21 to 17.7 µM), respectively.
Consider `CN(C)CC#Cc1c(F)cc(C2=CCN(CCC(C)(C(=O)NO)S(C)(=O)=O)CC2)cc1F` (stereo not drawn) [Example 32, 4-(4-(4-(3-(dimethylamino)prop-1-yn-1-yl)-3,5-difluorophenyl)-3,6-dihydropyridin-1(2H)-yl)-N-hydroxy-2-methyl-2-(methylsulfonyl)butanamide], for which the MIC with K. pneumoniae ATCC 29665 is 1 to 8 µg/mL (≈ 2.13 to 17 µM); in the experiment with E. coli ATCC 25922 it was less than 1 µg/mL; in the experiment with P. aeruginosa PAO1, 1 to 8 µg/mL (≈ 2.13 to 17 µM).
Consider `CN(C)CC#Cc1ccc(C2=CCN(CCC(C)(C(=O)NO)S(C)(=O)=O)CC2)c(F)c1` (stereo not drawn) [Example 33, 4-(4-(4-(3-(dimethylamino)prop-1-yn-1-yl)-2-fluorophenyl)-3,6-dihydropyridin-1(2H)-yl)-N-hydroxy-2-methyl-2-(methylsulfonyl)butanamide], for which the figures for the MIC with K. pneumoniae ATCC 29665, in the experiment on E. coli ATCC 25922 and in the experiment with P. aeruginosa PAO1 were 8 to 16 µg/mL (≈ 17.7 to 35.4 µM), 1 to 8 µg/mL (≈ 2.21 to 17.7 µM) and 1 to 8 µg/mL (≈ 2.21 to 17.7 µM), respectively.
